Assay results reported in patent publication US20250282828A1, “PEPTIDES FOR THE TREATMENT OF RESPIRATORY INFECTIONS OF VIRAL ORIGIN” (CENTRO DE INGENIERÍA GENÉTICA Y BIOTECNOLOGÍA, priority 2020, published 2025).
No end group written: not given here.

Tests used:
Protein N (SARS-CoV-2) = Protein N (SARS-CoV-2) (Severe acute respiratory syndrome coronavirus 2, UniProt P0DTC9); experiment: BIACORE surface plasmon resonance interaction with immobilized peptide; assay type: binding
ZIKV E protein (Zika) = target: T1, ZIKV E protein (Zika) (Zika virus, UniProt A0A024B7W1); experiment: as above; assay type: binding
T1 construct: the envelope protein of the Zika virus (ZIKV E)

p24 (HIV) = p24 (HIV) (Human immunodeficiency virus type 1 group M subtype B, UniProt P04591); experiment: as above; assay type: binding, HIV-1
NS1-D2 (Dengue) = target: T2, NS1-D2 (Dengue) (Dengue virus type 2, UniProt P29990); experiment: as above; assay type: binding, Dengue virus 2
T2 construct: the non-structural protein 1 of the Dengue virus 2 (NS1-D2)

[1] = tested on: Parainfluenza virus type 3 (HPIV3); assay type: cell-based; conditions: 50 μM; HAE, 3 days
AdV 7 Gomen strain = experiment: Adenovirus type 7 replication in bronchial HAE (qPCR); assay type: cell-based; conditions: 50 μM, 24 hours
Dengue 2 virus = Dengue 2 virus replication in primary cultures of lung cells (PFU in VeroE6); assay type: cell-based; conditions: 100 μM, 48 hours
Procedure: The cultures were treated with the peptides for 2 or 24 hours, at concentrations of 0.01 to 100 μM before viral challenge. The medium was discarded and the cells were infected with Dengue 2 virus, at an MOI of 10 for 2 hours at 37° C. and 5% CO2. The virus was eliminated, a wash was then performed and the cultures were treated again with peptides in DMEM medium, and incubated for 48 hours at 37° C. and 5% CO2. Subsequently, the cultures were collected to assess viral performance on VeroE6 cells. For this, the cells were seeded in 24-well plates and when they reached confluence they were infected with serial 10-fold dilutions of the supernatants, incubated for 1 hour at 37° C. and 5% CO2. Next, a wash was carried out with PBS, and a layer of agar in 2× DMEM (1:1) added. The layer was allowed to solidify and incubated for 48 hours at 37° C. 5% CO2. The plates were stained with crystal violet, for the determination of the number of PFUs. The peptides inhibited between 68 and 88% of viral replication (Table 5).

[2] = tested on: herpes simplex virus type 1 (HSV-1); experiment: HSV-1 replication in primary explants of human nasal mucosa (qPCR); assay type: cell-based; conditions: 100 μM, 36 hours
Procedure: The replication of herpes simplex virus type 1 (HSV-1) was performed in primary explants of human nasal mucosa, according to Glorieux et al. (Glorieux et al. 2011, PLoS ONE, 6(7): e22160, doi: 10.1371/journal.pone.0022160). […] Afterwards, the cultures were washed and kept at 37° C. and 5% CO2 for 36 hours, in presence of the peptides in culture medium. The cultures were harvested, and HSV-1 was quantified by qPCR. The percentages of viral inhibition ranged from 70 to 92% in presence of the peptides (Table 5).

SARS-CoV-2 = conditions: 72 h, 100 μM

T2 sequence (P29990 776-1127 limits assumed): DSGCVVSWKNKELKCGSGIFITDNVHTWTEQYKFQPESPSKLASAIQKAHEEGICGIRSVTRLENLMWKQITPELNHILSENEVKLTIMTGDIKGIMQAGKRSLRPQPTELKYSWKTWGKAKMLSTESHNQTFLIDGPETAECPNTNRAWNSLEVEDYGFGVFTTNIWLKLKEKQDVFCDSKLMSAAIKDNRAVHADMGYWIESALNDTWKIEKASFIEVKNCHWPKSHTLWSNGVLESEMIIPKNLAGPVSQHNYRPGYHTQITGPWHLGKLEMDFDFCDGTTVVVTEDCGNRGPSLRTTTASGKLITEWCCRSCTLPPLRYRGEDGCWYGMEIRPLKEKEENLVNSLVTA
T1 sequence (A0A024B7W1 291-794): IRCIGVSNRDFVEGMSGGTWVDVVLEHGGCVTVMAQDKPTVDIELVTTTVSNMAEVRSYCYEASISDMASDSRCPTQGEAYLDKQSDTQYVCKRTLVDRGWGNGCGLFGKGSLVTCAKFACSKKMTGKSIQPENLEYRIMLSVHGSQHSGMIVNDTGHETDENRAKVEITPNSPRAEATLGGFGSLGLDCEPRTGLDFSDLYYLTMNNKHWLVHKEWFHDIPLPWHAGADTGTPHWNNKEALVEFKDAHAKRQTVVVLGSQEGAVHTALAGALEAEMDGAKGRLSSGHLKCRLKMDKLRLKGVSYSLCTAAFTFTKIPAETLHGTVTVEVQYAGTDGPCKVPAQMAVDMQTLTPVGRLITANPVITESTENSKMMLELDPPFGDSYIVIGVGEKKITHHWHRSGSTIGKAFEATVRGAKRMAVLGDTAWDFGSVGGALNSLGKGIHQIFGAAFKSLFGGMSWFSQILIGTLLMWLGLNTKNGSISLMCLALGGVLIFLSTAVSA

How did the “interaction (signal RU)” value (Protein N (SARS-CoV-2); 10-200 nM) turn out when RVTQMNLNDRLASLYDKV [SEQ ID NO: 1] was run?
The value was “significant increase in signal”.

What about the Kd (Protein N (SARS-CoV-2); analyte 10-200 nM) of the same sequence?
Its Kd is 0.00358 µM.

And the kd (Protein N (SARS-CoV-2); analyte 10-200 nM)?
Its kd is 0.000972 s⁻¹.

What about the Rmax (Protein N (SARS-CoV-2); analyte 10-200 nM, biotinylated peptide on SA chip) of the same sequence?
The Rmax was 329 RU.

What about the kon (Protein N (SARS-CoV-2); analyte 10-200 nM, read-out: ka) of the same sequence?
The kon was 271000 M⁻¹ s⁻¹.

And the Kd (ZIKV E protein (Zika))?
Its Kd is 1.59 µM.

And the Rmax (ZIKV E protein (Zika))?
The Rmax was 2.11 × 10^4 RU.

And the interaction (ZIKV E protein (Zika))?
Its interaction is “showed interaction”.

And the kd (ZIKV E protein (Zika))?
The kd was 0.00154 s⁻¹.

And the kon (ZIKV E protein (Zika); read-out: ka)?
Its kon is 965 M⁻¹ s⁻¹.

What about the interaction (p24 (HIV)) of the same sequence?
The interaction was “absence of interaction”.

And the Kd (NS1-D2 (Dengue))?
Its Kd is 0.769 µM.

And the Rmax (NS1-D2 (Dengue))?
The Rmax was 1.86 RU.

What about the interaction (NS1-D2 (Dengue)) of the same sequence?
The interaction was “showed interaction”.

What about the kd (NS1-D2 (Dengue)) of the same sequence?
The kd was 1.02e-05 s⁻¹.

What about the kon (NS1-D2 (Dengue); read-out: ka) of the same sequence?
Its kon is 13.3 M⁻¹ s⁻¹.

And the “Parainfluenza Type 3 Inhib. %” value [1]?
Its value is 79%.

And the “Adenovirus Ad7 Inhib. %” value (AdV 7 Gomen strain)?
Its value is 68%.

And the “Dengue 2 Inhib. %” value (Dengue 2 virus)?
The value was 81%.

What about the “Herpes simplex HSV-1 Inhib. %” value [2] of the same sequence?
The value was 92%.

What about the “Bronchial HAE Inhibition %” value (SARS-CoV-2) of the same sequence?
The value was 84%.

What about the “Nasal HAE Inhibition %” value (SARS-CoV-2) of the same sequence?
Its value is 74%.
